Test [1] concerns DLD1 NRF2-GOF. Particulars: 72 h; CellTiter-Glo viability. The method, boiled down: (§1)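 Isogenic DLD1 colorectal cancer cells, either NRF2 wild-type or CRISPR gain-of-function, were grown in DMEM with 10% FBS. They were exposed in 384-well plates to library compounds at 5 concentrations spanning a 10,000-fold range. After 72 h, viability was read by CellTiter-Glo on a Pherastar FS reader and normalised to vehicle wells and 100-μM positive-control wells. EC50 and drug sensitivity score (a normalised area under the curve) came from four-parameter logistic dose-response fits.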
(In ATP-based viability assays light output follows the ATP content of the culture.)

Test [2] deals with DLD1 NRF2-WT. To be noted: 72 h; CellTiter-Glo viability. The method, boiled down: as §1
For test [3], the system named is DLD1 NRF2-GOF. The test is described as follows: TC50 cytotoxicity; higher = less toxic. To be noted: 72 h; CellTox Green cytotoxicity. The method, boiled down:
(§2)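 Isogenic DLD1 colorectal cancer cells differing in NRF2 status, one line edited by CRISPR, were cultured in DMEM with 10% FBS and treated in 384-well plates with library compounds at 5 concentrations spanning a 10,000-fold range. Plates were read after 72 h with CellTox Green on a Pherastar FS reader, and signals were normalised to vehicle wells and 100-μM positive-control wells. Cytotoxicity was summarised as TC50 and as a drug sensitivity score, a normalised area under the curve, both from logistic dose-response fits.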

For test [4], the system named is DLD1 NRF2-WT. In words: TC50 cytotoxicity; higher = less toxic. Particulars: 72 h; CellTox Green cytotoxicity. The method, boiled down:
as §2

The test system of test [5] is DLD1 NRF2-GOF. The test is described as follows: drug sensitivity score (DSS) cytotoxicity (DSS score); higher = more toxic; extreme values may be limits of the assay. To be noted: 72 h; CellTox Green cytotoxicity. The method, boiled down: as §2
In test [6] the test system is DLD1 NRF2-WT. Described as above. To be noted: 72 h; CellTox Green cytotoxicity. In a few lines:
as §2

The test system of test [7] is DLD1 NRF2-GOF. The test is described as follows: drug sensitivity score (DSS) viability (DSS score); higher = more sensitive; extreme values may be limits of the assay. To be noted: 72 h; CellTiter-Glo viability. The method, boiled down: as §1
Test [8] relates to DLD1 NRF2-WT. Described as above. To be noted: 72 h; CellTiter-Glo viability. In a few lines:
as §1

For `COc1cccc2c1C(=O)c1c(O)c3c(c(O)c1C2=O)C[C@@](O)(C(=O)CO)C[C@@H]3O[C@H]1C[C@H](N)[C@H](O)[C@H](C)O1` [Doxorubicin], the EC50 viability was determined as 138 nM in the test with DLD1 NRF2-GOF [1] and 168 nM in the test on DLD1 NRF2-WT [2]. Further, the TC50 cytotoxicity in the test with DLD1 NRF2-GOF [3] and in the test on DLD1 NRF2-WT [4] was more than 1 µM in each case. Also, the drug sensitivity score came to 0 with DLD1 NRF2-GOF [5], 0 with DLD1 NRF2-WT [6], 9.2 in the test on DLD1 NRF2-GOF [7] and 8.1 in the test with DLD1 NRF2-WT [8].

As to `CC[C@H](Nc1ncnc2[nH]cnc12)c1nc2cccc(F)c2c(=O)n1-c1ccccc1` [Idelalisib], the EC50 viability with DLD1 NRF2-GOF [1] and in the test on DLD1 NRF2-WT [2] was more than 10000 nM throughout. Besides, the TC50 cytotoxicity in the test with DLD1 NRF2-GOF [3] and with DLD1 NRF2-WT [4] was more than 10 µM in each case. Besides, the drug sensitivity score worked out at 0 with DLD1 NRF2-GOF [5], 0 in the test with DLD1 NRF2-WT [6], 2 in the test with DLD1 NRF2-GOF [7] and 1.6 in the test with DLD1 NRF2-WT [8].

Turning to `CNC(=O)c1cccc(-c2ccc3c(N4CCOC[C@@H]4C)nc(N4CCOC[C@@H]4C)nc3n2)c1` [Vistusertib], the EC50 viability in the test with DLD1 NRF2-GOF [1] came to 675 nM; with DLD1 NRF2-WT [2], 371 nM. In addition, the TC50 cytotoxicity in the test with DLD1 NRF2-GOF [3] and in the test with DLD1 NRF2-WT [4] was more than 10 µM in each case. In addition, the drug sensitivity score with DLD1 NRF2-GOF [5] is 0; in the test with DLD1 NRF2-WT [6], 0; in the test with DLD1 NRF2-GOF [7], 9.9; with DLD1 NRF2-WT [8], 11.9.

On to `O=C(O)CC[C@H]1CC[C@@](c2cc(F)ccc2F)(S(=O)(=O)c2ccc(Cl)cc2)CC1` [MK-0752], for which the values for the EC50 viability in the test with DLD1 NRF2-GOF [1] and with DLD1 NRF2-WT [2] were 1.7 nM and more than 1000 nM, respectively. Moreover, the TC50 cytotoxicity in the test on DLD1 NRF2-GOF [3] and in the test on DLD1 NRF2-WT [4] was more than 1 µM each time. The drug sensitivity score in the test on DLD1 NRF2-GOF [5] came to 0; in the test on DLD1 NRF2-WT [6], 0; in the test on DLD1 NRF2-GOF [7] it was 9.1; with DLD1 NRF2-WT [8], 0.7.

`COc1cc(Nc2ncc3c(n2)-c2ccc(Cl)cc2C(c2c(F)cccc2OC)=NC3)ccc1C(=O)O` [Alisertib]: the results for the EC50 viability in the test with DLD1 NRF2-GOF [1] and in the test on DLD1 NRF2-WT [2] were 47.8 nM and 27.9 nM, respectively. Also, the figures for the TC50 cytotoxicity in the test with DLD1 NRF2-GOF [3] and with DLD1 NRF2-WT [4] were 0.205 µM and 0.939 µM, respectively. The drug sensitivity score in the test on DLD1 NRF2-GOF [5] came out at 6.6; in the test with DLD1 NRF2-WT [6] it was 2.8; in the test with DLD1 NRF2-GOF [7] it was 15.9; in the test on DLD1 NRF2-WT [8] it was 10.3.

For `CC(C)NC(=O)COc1cccc(-c2nc(Nc3ccc4[nH]ncc4c3)c3ccccc3n2)c1` [KD025], the EC50 viability in the test with DLD1 NRF2-GOF [1] was determined as 42.9 nM; with DLD1 NRF2-WT [2] it was 2280 nM. The TC50 cytotoxicity with DLD1 NRF2-GOF [3] and with DLD1 NRF2-WT [4] was more than 5 µM throughout. For the same compound, the drug sensitivity score in the test with DLD1 NRF2-GOF [5] came out at 0; in the test on DLD1 NRF2-WT [6], 0; with DLD1 NRF2-GOF [7], 5.4; with DLD1 NRF2-WT [8], 1.8.

Turning to `CCCc1cc(C)[nH]c(=O)c1CNC(=O)c1cc(-c2ccnc(N3CCN(C)CC3)c2)cc2c1cnn2C(C)C` [GSK343], the EC50 viability in the test with DLD1 NRF2-GOF [1] and with DLD1 NRF2-WT [2] was more than 1000 nM in each case. Also, the TC50 cytotoxicity with DLD1 NRF2-GOF [3] and in the test on DLD1 NRF2-WT [4] was more than 1 µM each time. Besides, the drug sensitivity score with DLD1 NRF2-GOF [5], in the test on DLD1 NRF2-WT [6], in the test on DLD1 NRF2-GOF [7] and in the test on DLD1 NRF2-WT [8] was 0 in each case.

For `C[C@@H]1COCCN1c1cc(C2([S@](C)(=N)=O)CC2)nc(-c2cc[nH]c3nccc2-3)n1` [AZD6738], the EC50 viability with DLD1 NRF2-GOF [1] was found to be 3030 nM; in the test with DLD1 NRF2-WT [2], 2670 nM. For the same compound, the TC50 cytotoxicity in the test with DLD1 NRF2-GOF [3] and with DLD1 NRF2-WT [4] was more than 25 µM each time. Besides, the drug sensitivity score in the test with DLD1 NRF2-GOF [5] was 0; in the test with DLD1 NRF2-WT [6], 0; in the test with DLD1 NRF2-GOF [7] it was 4.5; in the test on DLD1 NRF2-WT [8] it was 7.8.

On to `O=C1NC(=O)[C@@H](c2cn3c4c(cccc24)CCC3)[C@@H]1c1c[nH]c2ccccc12` [Tivantinib], for which the EC50 viability in the test with DLD1 NRF2-GOF [1] turned out to be 242 nM; in the test on DLD1 NRF2-WT [2] it was 164 nM. For the same compound, the TC50 cytotoxicity in the test on DLD1 NRF2-GOF [3] and with DLD1 NRF2-WT [4] was more than 1 µM in each case. The drug sensitivity score was 0.9 with DLD1 NRF2-GOF [5], 1.4 in the test on DLD1 NRF2-WT [6], 5 in the test on DLD1 NRF2-GOF [7] and 6.7 in the test with DLD1 NRF2-WT [8].

Regarding `CNC(=O)c1ccccc1Nc1cc(Nc2ccc(N3CCOCC3)cc2OC)ncc1C(F)(F)F` [VS-4718], the EC50 viability in the test on DLD1 NRF2-GOF [1] is 1600 nM; in the test on DLD1 NRF2-WT [2], 1940 nM. The TC50 cytotoxicity in the test with DLD1 NRF2-GOF [3] and in the test on DLD1 NRF2-WT [4] was more than 10 µM in each case. For the same compound, the drug sensitivity score with DLD1 NRF2-GOF [5] came out at 0; in the test with DLD1 NRF2-WT [6], 0; in the test on DLD1 NRF2-GOF [7] it was 4.7; in the test with DLD1 NRF2-WT [8] it was 4.3.

For `Nc1ncnc2c1nc(N)n2[C@@H]1O[C@H](CO)[C@@H](O)[C@H]1O` [8-amino-adenosine], the figures for the EC50 viability in the test with DLD1 NRF2-GOF [1] and in the test with DLD1 NRF2-WT [2] were 1500 nM and 1070 nM, respectively. Besides, the TC50 cytotoxicity with DLD1 NRF2-GOF [3] worked out at 5.2 µM; with DLD1 NRF2-WT [4], 4.71 µM. The drug sensitivity score with DLD1 NRF2-GOF [5] is 11.2; with DLD1 NRF2-WT [6], 11.8; in the test on DLD1 NRF2-GOF [7], 18.2; in the test with DLD1 NRF2-WT [8], 20.
